# Source: article PMC11414412, “Design and synthesis new indole-based aromatase/iNOS inhibitors with apoptotic antiproliferative activity” (Frontiers in Chemistry, 2024)
# Legend:
# HT-29 cells = assay: Antiproliferative assay, HT-29; assay type: cell-based; conditions: Homo sapiens; HT-29 colon cancer cell line; read-out: Antiproliferative activity IC50 ± SEM, HT-29
# Protocol: 4.2.2. Assay for antiproliferative effect
# To explore the antiproliferative potential of compounds propidium iodide fluorescence assay was performed using different cell lines such as Panc-1 (pancreas cancer cell line), MCF-7 (breast cancer cell line), HT-29 (colon cancer cell line) and A-549 (epithelial cancer cell line), respectively. To calculate the total nuclear DNA, a fluorescent dye (propidium iodide, PI) is used which can attach to the DNA, thus offering a quick and precise technique. PI cannot pass through the cell membrane and its signal intensity can be considered as directly proportional to quantity of cellular DNA. Cells whose cell membranes are damaged or have changed permeability are counted as dead ones. The assay was performed by seeding the cells of different cell lines at a density of 3000-7500 cells/well (in200μl medium) in culture plates followed by incubation for 24h at 37 °C in humidified 5%CO2/95% air atmospheric conditions. The medium was removed; the compounds were added to the plates at 10 μM concentrations (in 0.1% DMSO) in triplicates, followed by incubation for 48h. DMSO (0.1%) was used as control. After incubation, medium was removed followed by the addition of PI (25 μl, 50μg/mL in water/medium) to each well of the plates. At - 80 °C, the plates were allowed to freeze for 24 h, followed by thawing at 25 °C. A fluorometer (Polar-Star BMG Tech) was used to record the readings at excitation and emission wavelengths of 530 and 620 nm for each well. The percentage cytotoxicity of compounds was calculated using […]
# Where ATC= Absorbance of treated cells and AC= Absorbance of control. Erlotinib was used as positive control in the assay.
# aromatase (CYP19) = molecular target: T1, aromatase (CYP19) (Homo sapiens, UniProt P11511); assay: Aromatase inhibitory assay (Gentest kit, DBF fluorometric substrate)
# T1 sequence (P11511 1-503): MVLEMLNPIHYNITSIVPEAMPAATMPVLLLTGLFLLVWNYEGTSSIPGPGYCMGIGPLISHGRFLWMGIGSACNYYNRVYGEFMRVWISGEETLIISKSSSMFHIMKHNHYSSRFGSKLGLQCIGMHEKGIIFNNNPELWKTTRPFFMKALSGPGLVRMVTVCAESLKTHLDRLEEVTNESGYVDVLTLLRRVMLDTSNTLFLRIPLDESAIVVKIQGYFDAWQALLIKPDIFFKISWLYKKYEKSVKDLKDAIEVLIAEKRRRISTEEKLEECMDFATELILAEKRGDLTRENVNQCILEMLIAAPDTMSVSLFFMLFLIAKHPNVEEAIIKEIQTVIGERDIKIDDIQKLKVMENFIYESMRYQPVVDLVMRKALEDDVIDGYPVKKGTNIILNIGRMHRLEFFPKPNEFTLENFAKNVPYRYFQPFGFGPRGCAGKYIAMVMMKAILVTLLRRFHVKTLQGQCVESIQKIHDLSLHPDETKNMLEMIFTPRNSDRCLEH
# Protocol: The aromatase inhibitory effect was performed using the method reported by Stressor et al.[35].
# This method was carried out according to the Gentest kit using CYP19 enzyme and DBF as a
# fluorometric substrate. DBF was dealkylated by aromatase and then hydrolyzed to give the
# fluorescein product. Briefly, 100 μL of cofactor, containing 78.4 μL of 50 mM phosphate buffer
# (pH 7.4); 20 μL of 20x NADPH-generating system (26 mM NADP+, 66 mM glucose-6-phosphate,
# and 66 mM MgCl2); and 1.6 μL of 100 U/mL glucose-6-phosphate dehydrogenase, was pipetted
# into a 96-well plate and preincubated in 37 °C (water bath) for 10 min. The reaction was initiated
# by addition of 100 μL of enzyme/substrate mixture containing 77.3 μL of 50 mM
# phosphate buffer (pH 7.4); 12.5 μL of 16 pmol/mL CYP19; 0.2 μL of 0.2 mM DBF, and 10 μL of
# 0.25 mM diluted tested sample or 10% DMSO as a negative control or letrozole as a positive
# control. Fluorescence signal was recorded using an excitation wavelength of 490 nm and emission
# Percentage of inhibition (%inhibition) was calculated
# as shown in Equation (1).
# assayed in triplicate. Finally, IC50 values were determined by plot of concentrations versus %
# Caspase-3 = Caspase-3 activation assay; assay type: cell-based, human; conditions: A-594 cells; for Caspase-3 Fold change: at IC50 concentration, vs untreated control; for Caspase-3 Conc: compound at its IC50 concentration
# Caspase-8 = Caspase-8 activation assay; assay type: cell-based, human; conditions: A-594 cells; for Caspase-8 Fold change: at IC50 concentration, vs untreated control; for Caspase-8 Conc: compound at its IC50 concentration
# Protocol: When cells get specific signal instructions, they undergo apoptosis, which results in several significant changes. Caspases, considered the main workers in apoptosis, are activated early in the process, cleaving critical cellular components such as nuclear proteins like DNA repair enzymes or structural proteins found in the cytoskeleton that are required for optimal cellular function.
# 4.2.6. Caspase-8 activation assay […]
# caspase8, and lysed with Cell Extraction Buffer. This lysate was diluted in Standard Diluent Buffer over the range of the assay and measured for human active caspase-8 content. (Cells are Plated in a density of 1.2 – 1.8 × 10,000 cells/well in a volume of 100µl complete growth medium + 100 ul of the tested compound per well in a 96-well plate for 24 hours before the enzyme assay for Tubulin.). The absorbance of each microwell was read on a spectro-photometer at 450 nm. A standard curve is prepared from 7human Caspase-8 standard dilutions and human Caspase-8 concentration determined. […]
# Bcl-2 = Bcl-2 inhibition assay; assay type: cell-based, human; conditions: lung (A-549) cancer cells; for Bcl-2 Conc: compound at IC50
# Protocol: 4.2.8. Bcl-2 inhibition assay
# Mix all reagents thoroughly without foaming before use. Wash the microwells twice with approximately 300 μL Wash Buffer per well with thorough aspiration of microwell contents between washes. Take caution not to scratch the surface of the microwells. After the last wash, empty the wells and tap microwell strips on absorbent pad or paper towel to remove excess Wash Buffer. Use the microwell strips immediately after washing or place upside down on a wet absorbent paper for not longer than 15 minutes. […] Add 100 μL of Sample […]
# Diluent in duplicate to all standard wells and to the blank wells. Prepare standard (1:2 dilution) in duplicate ranging from 32 ng/mL to 0.5 ng/mL. Add 100 μL of Sample Diluent, in duplicate, to the blank wells. Add 80 μL of Sample Diluent, in duplicate, to the sample wells. Add 20 μL of each Sample, in duplicate, to the designated wells. Add 50 μL of diluted biotin-conjugate to all wells, including the blank wells. Cover with a plate cover and incubate at room temperature, on a microplate shaker at 100 rpm if available, for 2 hours. Remove plate cover and empty the wells.
# Wash microwell strips 3 times as described in step 2. Add 100 μL of diluted Streptavidin-HRP to all wells, including the blank wells. Cover with a plate cover and incubate at room temperature, on a microplate shaker at 100 rpm if available, for 1 hour. Remove plate cover and empty the wells.
# Wash microwell strips 3 times as described in step 2. Proceed to the next step. Pipette 100 μl of mixed TMB Substrate Solution to all wells, including the blanks. Incubate the microwell strips at room temperature (18° to 25°C) for about 15 minutes, if available on a rotator set at 100 rpm.
# Avoid direct exposure to intense light. The point, at which the substrate reaction is stopped, is often determined by the ELISA reader. Many ELISA readers record absorbance only up to 2.0
# O.D. Therefore, the color development within individual microwells must be watched by the person running the assay and the substrate reaction stopped before positive wells are no longer properly detectable. Stop the enzyme reaction by quickly pipetting 100 μL of Stop Solution into each well, including the blank wells. It is important that the Stop Solution is spread quickly and uniformly throughout the microwells to completely inactivate the enzyme. Results must be read immediately after the Stop Solution is added or within one hour i f the microwell strips are stored at 2 - 8°C in the dark. Read absorbance of each microwell on a spectrophotometer using 450 nm as the primary wavelength.
structure (smiles),measurement,setting,value
"CCc1c2cc(Cl)ccc2n2c(C)c(C(=O)NCc3ccccc3)[nH]c(=O)c12 [Compound 7, N-benzyl-8-chloro-10-ethyl-4-methyl-1-oxo-1,2-dihydropyrazino [1,2-a]indole-3-carboxamide]",IC50,HT-29 cells,0.029 ± 0.002 µM
same,IC50,aromatase (CYP19),0.015 ± 0.001 µM
"CCc1c2cc(Cl)ccc2n2c(C)c(C(=O)OCc3ccccc3)[nH]c(=O)c12 [Compound 5, benzyl 8-chloro-10-ethyl-4-methyl-1-oxo-1,2-dihydropyrazino [1,2-a]indole-3-carboxylate]",IC50,HT-29 cells,0.032 ± 0.003 µM
same,IC50,aromatase (CYP19),0.02 ± 0.002 µM
"CCc1c2cc(Cl)ccc2n2cc(Cc3ccccc3)n(C)c(=O)c12 [Compound 12, 3-Benzyl-8-chloro-10-ethyl-2-methylpyrazino[1,2-a]indol-1(2H)-one]",IC50,HT-29 cells,0.025 ± 0.002 µM
same,Caspase-3 Fold change,Caspase-3,9
same,Caspase-3 Conc,Caspase-3,580 ± 5 pg/mL
same,Caspase-8 Fold change,Caspase-8,29
same,Caspase-8 Conc,Caspase-8,2.60 ± 0.20 ng/mL
same,Bcl-2 Conc,Bcl-2,0.65 ng/mL
same,Fold less potent than Letrozole (aromatase IC50),aromatase (CYP19),5 fold
same,Fold more potent than Ketoconazole (aromatase IC50),aromatase (CYP19),at least 10 fold
same,IC50,aromatase (CYP19),0.01 ± 0.001 µM
"CCc1c2cc(Cl)ccc2n2cc(-c3ccccc3)[nH]c(=O)c12 [Compound 16, 8-Chloro-10-ethyl-3-phenylpyrazino [1,2-a]indol-1(2H)-one]",IC50,HT-29 cells,0.025 ± 0.002 µM
same,Caspase-3 Fold change,Caspase-3,8
same,Caspase-3 Conc,Caspase-3,530 ± 5 pg/mL
same,Caspase-8 Fold change,Caspase-8,25
same,Caspase-8 Conc,Caspase-8,2.25 ± 0.18 ng/mL
same,Bcl-2 Fold reduction,"Bcl-2; at IC50, vs untreated control",~6
same,Bcl-2 Conc,Bcl-2,0.85 ng/mL
same,IC50,aromatase (CYP19),0.012 ± 0.001 µM
